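Protocol summary: plate cells (96-well), add compound at 5 concentrations, incubate 48 h, interpolate endpoints linearly. GI50 is the concentration that inhibits growth by half.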 Activity calls are given as the source filed them. Rule as the data show it: active = GI50 up to about 1.1 µM and inactive = higher.
What was measured:
Experiment in all cases: DTP human tumour cell line panel, 48 h
OVCAR-8 = tested on: OVCAR-8
SK-OV-3 = tested on: SK-OV-3
BT-549 = tested on: BT-549
MOLT-4 = tested on: MOLT-4
HL-60 = tested on: HL-60
SNB-19 = tested on: SNB-19
TK-10 = tested on: TK-10
SK-MEL-5 = tested on: SK-MEL-5
UACC-62 = tested on: UACC-62
HT-29 = tested on: HT-29
HOP-62 = tested on: HOP-62
SF-268 = tested on: SF-268
T47D = tested on: T47D
CCRF-CEM = tested on: CCRF-CEM
SF-295 = tested on: SF-295
SF-539 = tested on: SF-539
NCI-H226 = tested on: NCI-H226
NCI-H23 = tested on: NCI-H23
UACC-257 = tested on: UACC-257
HCT-15 = tested on: HCT-15

Compound	GI50 (OVCAR-8)	GI50 (SK-OV-3)	GI50 (BT-549)	GI50 (MOLT-4)	GI50 (HL-60)	GI50 (SNB-19)	GI50 (TK-10)	GI50 (SK-MEL-5)	GI50 (UACC-62)	GI50 (HT-29)	GI50 (HOP-62)	GI50 (SF-268)	GI50 (T47D)	GI50 (CCRF-CEM)	GI50 (SF-295)	GI50 (SF-539)	GI50 (NCI-H226)	GI50 (NCI-H23)	GI50 (UACC-257)	GI50 (HCT-15)
C/C(=C/CC[C@]1(CO)CC[C@]2(CO)[C@H](CC[C@@H]3[C@@]4(C)CC[C@H](OC5OCC(O)C(O)C5OC5OC(CO)C(O)C(O)C5O)C(C)(C)[C@@H]4CC[C@]32C)[C@H]1O)CO (some centres not stated)	> 100 µM (inactive)	> 100 µM (inactive)	> 100 µM (inactive)	> 100 µM (inactive)	> 100 µM (inactive)	> 100 µM (inactive)	> 100 µM (inactive)	> 100 µM (inactive)	> 100 µM (inactive)	> 100 µM (inactive)	> 100 µM (inactive)	> 100 µM (inactive)	> 100 µM (inactive)	> 100 µM (inactive)	> 100 µM (inactive)	> 100 µM (inactive)	> 100 µM (inactive)	> 100 µM (inactive)	> 100 µM (inactive)	–
CO/N=C1/C(n2[nH]c(=O)n(-c3ccccc3)c2=O)C2C=CC1n1c(=O)n(-c3ccccc3)c(=O)n12 (configuration not stated)	> 100 µM (inactive)	> 100 µM (inactive)	> 100 µM (inactive)	> 100 µM (inactive)	> 100 µM (inactive)	> 100 µM (inactive)	> 100 µM (inactive)	> 100 µM (inactive)	> 100 µM (inactive)	> 100 µM (inactive)	–	> 100 µM (inactive)	> 100 µM (inactive)	> 100 µM (inactive)	–	> 100 µM (inactive)	> 100 µM (inactive)	> 100 µM (inactive)	> 100 µM (inactive)	> 100 µM
Cc1ccc(-n2c(O)c(C#N)c3[nH]nc(N)c3c2=O)cc1	> 100 µM (inactive)	> 100 µM (inactive)	> 100 µM (inactive)	> 100 µM (inactive)	> 100 µM (inactive)	> 100 µM (inactive)	> 100 µM (inactive)	> 100 µM (inactive)	> 100 µM (inactive)	> 100 µM (inactive)	–	> 100 µM (inactive)	> 100 µM (inactive)	> 100 µM (inactive)	–	> 100 µM (inactive)	> 100 µM (inactive)	> 100 µM (inactive)	> 100 µM (inactive)	> 100 µM
O=C1c2ccccc2C(=O)c2c1ccc(C1C(=O)c3ccccc3C1=O)c2-c1c(C2C(=O)c3ccccc3C2=O)ccc2c1C(=O)c1ccccc1C2=O	> 100 µM (inactive)	> 100 µM (inactive)	> 100 µM (inactive)	19 µM (inactive)	7.89 µM (inactive)	> 100 µM (inactive)	> 100 µM (inactive)	> 100 µM (inactive)	> 100 µM (inactive)	> 100 µM (inactive)	> 100 µM (inactive)	> 100 µM (inactive)	> 100 µM (inactive)	–	> 100 µM (inactive)	> 100 µM (inactive)	> 100 µM (inactive)	–	> 100 µM (inactive)	> 100 µM
COc1ncc(/C=C2\OC(=O)c3ccccc32)c(OC)n1	8.13 µM (inactive)	–	0.402 µM (active)	41 µM (inactive)	> 100 µM (inactive)	26.5 µM (inactive)	16.2 µM (inactive)	9.95 µM (inactive)	–	64.6 µM (inactive)	12.1 µM (inactive)	32.6 µM (inactive)	23.6 µM (inactive)	39.1 µM (inactive)	4.19 µM (inactive)	12.7 µM (inactive)	66.1 µM (inactive)	> 100 µM (inactive)	57.3 µM (inactive)	65.2 µM
Cc1cn(CC(=S)NCCc2c[nH]c3ccccc23)c(=O)[nH]c1=O	–	> 100 µM (inactive)	> 100 µM (inactive)	12.8 µM (inactive)	56.8 µM (inactive)	> 100 µM (inactive)	–	35.5 µM (inactive)	70 µM (inactive)	31.4 µM (inactive)	> 100 µM (inactive)	> 100 µM (inactive)	34.5 µM (inactive)	44.3 µM (inactive)	–	> 100 µM (inactive)	33.5 µM (inactive)	59.3 µM (inactive)	–	> 100 µM
NCCCCN(CCCN)Cc1ccc2ccccc2c1	39.4 µM (inactive)	96.4 µM (inactive)	90.4 µM (inactive)	34.8 µM (inactive)	67.5 µM (inactive)	12.9 µM (inactive)	> 100 µM (inactive)	92.7 µM (inactive)	95.7 µM (inactive)	23.3 µM (inactive)	–	12.6 µM (inactive)	> 100 µM (inactive)	27.1 µM (inactive)	44 µM (inactive)	30.8 µM (inactive)	21.5 µM (inactive)	25.3 µM (inactive)	> 100 µM (inactive)	> 100 µM
O=C1CCCCN1C(=O)c1ccc([N+](=O)[O-])cc1	> 100 µM (inactive)	–	> 100 µM (inactive)	> 100 µM (inactive)	> 100 µM (inactive)	> 100 µM (inactive)	> 100 µM (inactive)	> 100 µM (inactive)	37.3 µM (inactive)	> 100 µM (inactive)	> 100 µM (inactive)	> 100 µM (inactive)	> 100 µM (inactive)	> 100 µM (inactive)	> 100 µM (inactive)	> 100 µM (inactive)	> 100 µM (inactive)	> 100 µM (inactive)	> 100 µM (inactive)	> 100 µM
O=C1c2ccccc2C2(c3ccc(Cl)cc3)NCc3ccccc3CN12 (configuration not stated)	23.1 µM (inactive)	31.2 µM (inactive)	43.1 µM (inactive)	24.8 µM (inactive)	14 µM (inactive)	17 µM (inactive)	31.3 µM (inactive)	16 µM (inactive)	17.3 µM (inactive)	15.2 µM (inactive)	15.5 µM (inactive)	35.1 µM (inactive)	16.4 µM (inactive)	25.9 µM (inactive)	18.3 µM (inactive)	16.3 µM (inactive)	–	17.7 µM (inactive)	33 µM (inactive)	21.9 µM
COC1=C(OC)C(=O)C(Cc2c(Cl)nc3sccn23)=C(C)C1=O	13.5 µM (inactive)	10.1 µM (inactive)	14.4 µM (inactive)	1.85 µM (inactive)	2.42 µM (inactive)	13.5 µM (inactive)	12.9 µM (inactive)	4.14 µM (inactive)	5.2 µM (inactive)	14.6 µM (inactive)	16.1 µM (inactive)	14.5 µM (inactive)	2.76 µM (inactive)	2.02 µM (inactive)	12.4 µM (inactive)	12.5 µM (inactive)	–	5.36 µM (inactive)	3.32 µM (inactive)	12.6 µM
CN(C)CCCNC(=O)c1c(O)c2ccccc2n(C)c1=O	49.4 µM (inactive)	> 100 µM (inactive)	70 µM (inactive)	44.5 µM (inactive)	36.5 µM (inactive)	–	67.3 µM (inactive)	53.7 µM (inactive)	64.9 µM (inactive)	55.6 µM (inactive)	36.3 µM (inactive)	49.8 µM (inactive)	71.3 µM (inactive)	43.1 µM (inactive)	48.5 µM (inactive)	78.3 µM (inactive)	67 µM (inactive)	> 100 µM (inactive)	67.5 µM (inactive)	51.1 µM

Reference: ChEMBL document CHEMBL1201862, “PubChem BioAssay data set” (2004)
